Laboratory results: patent publication US4824862A, “3-phenyl-2-styrylpyrrolidines, preparation and use thereof” (BASF Aktiengesellschaft, priority 1987, dated 1989)

Columns and labels:
Assay type in all cases: biochemical
[1] = system: Norepinephrine uptake (3H-norepinephrine, hippocampus synaptosomes); assay: Inhibition of norepinephrine uptake in rat brain synaptosomes (hippocampus); settings: for IC50: rat hippocampus synaptosomes, 3H-norepinephrine, 37° C., read-out: Inhibition of neurotransmitter uptake in synaptosomes, Norepinephrine IC 50
Source text: (§1) The mode of action of a group of therapeutically frequently used antidepressants (for example tricyclic antidepressants) include the inhibition of the neuronal uptake of transmitter substances (norepinephrine, dopamine, serotonin). This property is utilized in biological test models to characterize potential antidepressants.
(§2) The following method was used: Inhibition of neurotransmitter uptake in rat brain synaptosomes
(§3) Hippocampus, corpus striatum and cortex of rat brains were dissected out and homogenized in 0.32M sucrose solution. Differential centrifugation gave synaptosomes which were suspended in buffer solution. Synaptosomes are capable of actively taking up added neurotransmitter substances (for example norepinephrine, dopamine, serotonin) from the surrounding medium. With the aid of uptake inhibitors it is possible to counteract this process to a degree which depends on the concentration. The synaptosomes were mixed with the test substances in various concentrations and then incubated at 37° C. with ^3 H-norepinephrine (hippocampus), ^3 H-dopamine (corpus striatum) and ^3 H-serotonin (cortex). The substrate concentration was about […]. The uptake was determined by dilution with ice-cold buffer solution; thereafter the synaptosomes were separated off by centrifugation, and the ^3 H activity was measured in the sediment. A blank value was determined by incubating at 0° C.
(§4) The median inhibitory concentration (IC 50) was calculated from the inhibitor values found for the various inhibitor concentrations by comparison with the blank test by linear regression following logit-log conversion.

[2] = system: Dopamine uptake (3H-dopamine, corpus striatum synaptosomes); assay: Inhibition of dopamine uptake in rat brain synaptosomes (corpus striatum); settings: for IC50: rat corpus striatum synaptosomes, 3H-dopamine, 37° C., read-out: Inhibition of neurotransmitter uptake in synaptosomes, Dopamine IC 50
Source text: as §1, §2, §3, §4

[3] = system: Serotonin uptake (3H-serotonin, cortex synaptosomes); assay: Inhibition of serotonin uptake in rat brain synaptosomes (cortex); settings: 37° C., read-out: Inhibition of neurotransmitter uptake in synaptosomes, Serotonin IC 50
Source text: as §1, §2, §3, §4

| Structure (SMILES) | IC50 [1] | IC50 [2] | IC50 [3] | potency of inhibition of noradrenaline uptake compared with imipramine, in words [1] | inhibition of dopamine uptake, in words ([2]; qualitative statement) |
| --- | --- | --- | --- | --- | --- |
| CCN1CC[C@@H](c2ccccc2)[C@H]1/C=C/c1ccccc1 (relative stereo) [Example 2 cis, cis-3-phenyl-2-trans-styryl-N-ethylpyrrolidine] | 43 nM | 180 nM | > 1000 nM |  |  |
| CCCN1CC[C@@H](c2ccccc2)[C@@H]1/C=C/c1ccccc1 (relative stereo) [Example 3 trans, trans-3-phenyl-2-trans-styryl-N-n-propylpyrrolidine] | 160 nM | 400 nM | > 1000 nM |  |  |
| CN1CC[C@@H](c2ccccc2)[C@H]1/C=C/c1ccccc1 (relative stereo) [Example 1 cis, cis-3-phenyl-2-trans-styryl-N-methylpyrrolidine] | 29 nM | 120 nM | > 1000 nM |  |  |
| CCN1CC[C@@H](c2ccccc2)[C@@H]1/C=C/c1ccccc1 (relative stereo) [Example 2 trans, trans-3-phenyl-2-trans-styryl-N-ethylpyrrolidine] | 5.5 nM | 23 nM | > 1000 nM | appreciably exceeded by the compounds according to the invention |  |
| CN(C)CCCN1c2ccccc2CCc2ccccc21 [Imipramine, reference compound] | 14 nM | > 1000 nM | 130 nM |  | not possessed by imipramine |
| CCCN1CC[C@@H](c2ccccc2)[C@H]1/C=C/c1ccccc1 (relative stereo) [Example 3 cis, cis-3-phenyl-2-trans-styryl-N-n-propylpyrrolidine] |  |  | > 1000 nM |  |  |
| CN1CC[C@@H](c2ccccc2)[C@@H]1/C=C/c1ccccc1 (relative stereo) [Example 1 trans, trans-3-phenyl-2-trans-styryl-N-methylpyrrolidine] | 7.3 nM | 92 nM | > 1000 nM | appreciably exceeded by the compounds according to the invention |  |
